According to patent US6362369B1, “Phthalic acid diamide derivatives fluorine-containing aniline compounds as starting material, agricultural and horticultural insecticides, and a method for application of the insecticides” (Nihon Nohyaku Co., Ltd., priority 1997, dated 2002):

Legend:
[1] = tested on: diamondback moth (Plutella xylostella); assay: Insecticidal effect on diamondback moth (Test Example 1); format: in vivo; settings: for Insecticidal effect on diamondback moth (Test Example 1), judged grade: mortality judged according to the criterion shown in Test Example 1; for Insecticidal effect, Test Example 1 / Insecticidal effect (Test Example 1), judged from mortality: diamondback moth; for Insecticidal effect (Test Example 1), judged from mortality: judged by the criterion of Test Example 1
Procedure, shortened: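 Triplicate groups of 10 insects: eggs laid on Chinese cabbage seedling by adults, seedling immersed then air-dried, kept at 25° C. Day-6 hatch counts gave mortality, rated by criterion.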

[2] = tested on: rice leafroller (Cnaphalocrocis medinalis); assay: Insecticidal effect on rice leafroller (Test Example 3); format: in vivo; settings: 500 ppm, 25° C., humidity 70%; for Insecticidal effect on rice leafroller (Test Example 3), judged grade / Insecticidal effect (Test Example 3), judged from mortality: rice lamina dip; for Insecticidal effect on rice leafroller (Test Example 3), judged grade: third-instar larvae; for Insecticidal effect on rice leafroller (Test Example 3), judged grade / Insecticidal effect, Test Example 3: four days after inoculation; for Insecticidal effect, Test Example 3: rice lamina immersed; for Insecticidal effect (Test Example 3), judged from mortality: 4 days after inoculation
Method: Insecticidal effect on rice leafroller (Cnaphalocrocis medinalis)
After air-drying, the lamina was placed in a plastic Petri dish with a diameter of 9 cm whose bottom had been covered with a wetted filter paper. The lamina was inoculated with third-instar larvae of rice leafroller, after which the dish was allowed to stand in a room thermostated at 25° C. and having a humidity of 70%. Four days after the inoculation, the dead and alive were counted and the insecticidal effect was judged according to the criterion shown in Test Example 1. The test was carried out with triplicate groups of 10 insects.

[3] = judged by the mortality criterion of Test Example 1
[4] = third-instar larvae of rice leafroller
[5] = mortality judged by criterion of Test Example 1
[6] = rice leafroller third-instar larvae

Cc1cc(OC(F)(F)C(F)(F)Br)ccc1NC(=O)c1c(F)cccc1C(=O)NC(C)C [compound 554]
Insecticidal effect on diamondback moth (Test Example 1), judged grade [1]: A (100) | Insecticidal effect on rice leafroller (Test Example 3), judged grade [2]: A (100)

CC(C)NC(=O)c1cccc(F)c1C(=O)Nc1ccc(C(F)(F)C(F)(F)F)cc1 [compound 892]
Insecticidal effect on diamondback moth (Test Example 1), judged grade [1]: A (100) | Insecticidal effect on rice leafroller (Test Example 3), judged grade [2]: A (100)

Cc1c(Cl)cccc1NC(=O)c1c(I)cccc1C(=O)NC(C)C [compound 427]
Insecticidal effect, Test Example 1 [1, 3]: A (100) | Insecticidal effect, Test Example 3 [2, 4]: D (79-50)

Cc1cc(C(F)(F)C(F)(F)F)ccc1NC(=O)c1c(Cl)cccc1C(=O)NC(C)(C)CO [compound 1415]
Insecticidal effect, Test Example 1 [1, 5]: A (100) | Insecticidal effect, Test Example 3 [2, 6]: A (100)

Cc1cc(OC(F)(F)F)ccc1NC(=O)c1c(I)cccc1C(=O)NC(C)(C)C [compound 958]
Insecticidal effect, Test Example 1 [1, 5]: A (100) | Insecticidal effect, Test Example 3 [2, 6]: A (100)

Cc1cc(OC(F)F)ccc1NC(=O)c1cccc([N+](=O)[O-])c1C(=O)NCCF [compound 863]
Insecticidal effect on diamondback moth (Test Example 1), judged grade [1]: A (100) | Insecticidal effect on rice leafroller (Test Example 3), judged grade [2]: B (99-90)

CC(C)NC(=O)c1c(Cl)cccc1C(=O)Nc1cccc(SC(F)(F)F)c1 [compound 99]
Insecticidal effect, Test Example 1 [1, 3]: A (100) | Insecticidal effect, Test Example 3 [2, 4]: A (100)

Cc1cc(OC(F)(F)C(F)(F)c2ccccc2)ccc1NC(=O)c1ccccc1C(=O)NC(C)C [compound 1086]
Insecticidal effect, Test Example 1 [1, 5]: A (100) | Insecticidal effect, Test Example 3 [2, 6]: A (100)

Cc1cccc(NC(=O)c2cccc(Br)c2C(=O)NC(C)C)c1C [compound 263]
Insecticidal effect, Test Example 1 [1, 3]: A (100) | Insecticidal effect, Test Example 3 [2, 4]: A (100)

CC(C)NC(=O)c1c(C(=O)Nc2ccc([N+](=O)[O-])cc2)cccc1[N+](=O)[O-] [compound 596]
Insecticidal effect on diamondback moth (Test Example 1), judged grade [1]: D (79-50) | Insecticidal effect on rice leafroller (Test Example 3), judged grade [2]: D (79-50)

Cc1cc(OC(F)(F)F)ccc1NC(=O)c1cccc(I)c1C(=O)NCCc1cccnc1 [compound 1772]
Insecticidal effect (Test Example 1), judged from mortality [1]: A (100) | Insecticidal effect (Test Example 3), judged from mortality [2, 4]: A (100)

CC(C)NC(=O)c1cccc(Cl)c1C(=O)Nc1ccc2oc(C(F)(F)F)nc2c1 [compound 255]
Insecticidal effect, Test Example 1 [1, 3]: A (100) | Insecticidal effect, Test Example 3 [2, 4]: A (100)

CC(C)(C)NC(=O)c1c(I)cccc1C(=O)Nc1c(Cl)cc(Cl)c2c1OC(F)(F)O2 [compound 1748]
Insecticidal effect (Test Example 1), judged from mortality [1]: A (100) | Insecticidal effect (Test Example 3), judged from mortality [2, 4]: A (100)

Cc1cc(Oc2ncc(C(F)(F)F)cc2Cl)ccc1NC(=O)c1cccc([N+](=O)[O-])c1C(=O)NC(C)C [compound 729]
Insecticidal effect on diamondback moth (Test Example 1), judged grade [1]: A (100) | Insecticidal effect on rice leafroller (Test Example 3), judged grade [2]: A (100)

Cc1cc(OC(F)(F)C(F)OC(F)(F)F)ccc1NC(=O)c1cccc(F)c1C(=O)NC(C)C (centres unmarked) [compound 515]
Insecticidal effect on diamondback moth (Test Example 1), judged grade [1]: A (100) | Insecticidal effect on rice leafroller (Test Example 3), judged grade [2]: C (89-80)

CC(C)NC(=O)c1ccccc1C(=O)Nc1ccc([S+]([O-])C(F)(F)Br)cc1 (centres unmarked) [compound 1107]
Insecticidal effect, Test Example 1 [1, 5]: A (100) | Insecticidal effect, Test Example 3 [2, 6]: A (100)

Cc1cc(C(F)(F)C(F)(F)F)ccc1NC(=O)c1ccc(Br)c(Br)c1C(=O)NC(C)C [compound 1266]
Insecticidal effect, Test Example 1 [1, 5]: A (100) | Insecticidal effect, Test Example 3 [2, 6]: A (100)

CC(C)NC(=O)c1c(F)cccc1C(=O)Nc1ccc(SC(F)(F)C(F)F)cc1 [compound 479]
Insecticidal effect on diamondback moth (Test Example 1), judged grade [1]: A (100) | Insecticidal effect on rice leafroller (Test Example 3), judged grade [2]: A (100)

Cc1ccc(Cl)cc1NC(=O)c1cc2ccccc2cc1C(=O)NC(C)C [compound 822]
Insecticidal effect on diamondback moth (Test Example 1), judged grade [1]: D (79-50) | Insecticidal effect on rice leafroller (Test Example 3), judged grade [2]: D (79-50)

Cc1ccc(F)cc1NC(=O)c1ccccc1C(=O)NC(C)C [compound 53]
Insecticidal effect, Test Example 1 [1, 3]: A (100) | Insecticidal effect, Test Example 3 [2, 4]: A (100)

CC(C)(C)NC(=O)c1ccccc1C(=O)Nc1ccc2c(c1)OC(F)(F)O2 [compound 1103]
Insecticidal effect, Test Example 1 [1, 5]: A (100) | Insecticidal effect, Test Example 3 [2, 6]: A (100)

CCC(C)NC(=O)c1c(Cl)cccc1C(=O)Nc1ccc(OC(F)F)cc1C (centres unmarked) [compound 836]
Insecticidal effect on diamondback moth (Test Example 1), judged grade [1]: A (100) | Insecticidal effect on rice leafroller (Test Example 3), judged grade [2]: A (100)

CCCNC(=O)c1c(Cl)cccc1C(=O)Nc1ccc(C(F)(F)C(F)(F)F)cc1Cl [compound 1492]
Insecticidal effect (Test Example 1), judged from mortality [1]: A (100) | Insecticidal effect (Test Example 3), judged from mortality [2, 4]: A (100)

Cc1cc(OC(F)(F)C(F)F)c(Cl)cc1NC(=O)c1cccc([N+](=O)[O-])c1C(=O)NC(C)C [compound 718]
Insecticidal effect on diamondback moth (Test Example 1), judged grade [1]: A (100) | Insecticidal effect on rice leafroller (Test Example 3), judged grade [2]: A (100)

CCCNC(=O)c1c(C(=O)Nc2ccc(OC(F)F)cc2C)cccc1[N+](=O)[O-] [compound 17]
Insecticidal effect, Test Example 1 [1, 3]: A (100) | Insecticidal effect, Test Example 3 [2, 4]: D (79-50)

Cc1cc(C(F)(F)C(F)(F)C(F)(F)F)ccc1NC(=O)c1c(F)cccc1C(=O)NC(C)C [compound 555]
Insecticidal effect on diamondback moth (Test Example 1), judged grade [1]: A (100) | Insecticidal effect on rice leafroller (Test Example 3), judged grade [2]: B (99-90)

CC(C)NC(=O)c1ccccc1C(=O)Nc1ccc(S(=O)(=O)C(F)(F)F)cc1 [compound 1077]
Insecticidal effect, Test Example 1 [1, 5]: A (100) | Insecticidal effect, Test Example 3 [2, 6]: A (100)

Cc1cc(OCc2ccc(Cl)cc2)ccc1NC(=O)c1ccccc1C(=O)NC(C)C [compound 76]
Insecticidal effect, Test Example 1 [1, 3]: C (89-80) | Insecticidal effect, Test Example 3 [2, 4]: B (99-90)

Cc1cc(C(F)(F)F)ccc1NC(=O)c1cccc([N+](=O)[O-])c1C(=O)NC(C)C [compound 682]
Insecticidal effect on diamondback moth (Test Example 1), judged grade [1]: A (100) | Insecticidal effect on rice leafroller (Test Example 3), judged grade [2]: A (100)

Cc1cc(OC(F)F)ccc1NC(=O)c1cccc([S+]([O-])CC(F)(F)F)c1C(=O)NC(C)C (centres unmarked) [compound 799]
Insecticidal effect on diamondback moth (Test Example 1), judged grade [1]: A (100) | Insecticidal effect on rice leafroller (Test Example 3), judged grade [2]: A (100)

C#CC(C)(C)NC(=O)c1c(Cl)cccc1C(=O)Nc1ccc(OC(F)F)cc1C [compound 1588]
Insecticidal effect (Test Example 1), judged from mortality [1]: A (100) | Insecticidal effect (Test Example 3), judged from mortality [2, 4]: A (100)

CC(C)NC(=O)c1cccc(I)c1C(=O)Nc1cccc(C(F)(F)F)c1 [compound 414]
Insecticidal effect, Test Example 1 [1, 3]: A (100) | Insecticidal effect, Test Example 3 [2, 4]: A (100)

CCN(CC)C(=O)c1c(C(=O)Nc2ccc(C(F)(F)C(F)(F)F)cc2Cl)cccc1[N+](=O)[O-] [compound 1133]
Insecticidal effect, Test Example 1 [1, 5]: A (100) | Insecticidal effect, Test Example 3 [2, 6]: A (100)

CNC(=O)c1c(C(=O)Nc2ccc(OC(F)F)cc2C)cccc1[N+](=O)[O-] [compound 4]
Insecticidal effect, Test Example 1 [1, 3]: A (100) | Insecticidal effect, Test Example 3 [2, 4]: D (79-50)

Cc1cc(OC(F)F)ccc1NC(=O)c1cccc([N+](=O)[O-])c1C(=O)NC1CC1 [compound 852]
Insecticidal effect on diamondback moth (Test Example 1), judged grade [1]: A (100) | Insecticidal effect on rice leafroller (Test Example 3), judged grade [2]: D (79-50)

CC(C)NC(=O)c1c(I)cccc1C(=O)Nc1cc(Cl)c(OC(F)F)c(Cl)c1 [compound 383]
Insecticidal effect, Test Example 1 [1, 3]: A (100) | Insecticidal effect, Test Example 3 [2, 4]: A (100)

CC(C)NC(=O)c1cccc(Br)c1C(=O)Nc1ccc(OC(F)(F)F)cc1Br [compound 324]
Insecticidal effect, Test Example 1 [1, 3]: A (100) | Insecticidal effect, Test Example 3 [2, 4]: A (100)

CCN(CC)C(=O)c1cccc(I)c1C(=O)Nc1ccc(C(F)(F)C(F)(F)F)cc1C [compound 1036]
Insecticidal effect, Test Example 1 [1, 5]: A (100) | Insecticidal effect, Test Example 3 [2, 6]: A (100)

CC(C)NC(=O)c1ccccc1C(=O)Nc1ccc([S+]([O-])C(F)(F)F)cc1 (centres unmarked) [compound 999]
Insecticidal effect, Test Example 1 [1, 5]: A (100) | Insecticidal effect, Test Example 3 [2, 6]: A (100)

CC(C)NC(=O)c1c(C(=O)Nc2ccc(F)c(Cl)c2)cccc1[N+](=O)[O-] [compound 643]
Insecticidal effect on diamondback moth (Test Example 1), judged grade [1]: A (100) | Insecticidal effect on rice leafroller (Test Example 3), judged grade [2]: A (100)
